Laboratory results taken from the supplement of paper PMC10307832.

Tests used:
Experiment in all cases: relative viability (nuclei count vs DMSO), 5 days (fraction); higher = more cells survive
[1] = compound: N=C1NC(=O)/C(=C/c2ccc(O)cc2)S1 [Mirin] + CC(=O)c1c(C)c2cnc(Nc3ccc(N4CCNCC4)cn3)nc2n(C2CCCC2)c1=O [Palbociclib] (partner 0.5 µM)
Procedure, shortened: (§1)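 One day after seeding in 1536-well plates, lung cancer cell lines were dosed by pin tool. Dosing was either single-drug or a fixed anchor-drug dose plus five library-drug doses (not always all listed) in √10 steps. After 5 days, nuclei were stained in one fix-and-stain step and counted on 4× images, and relative viability is the nuclei count of treated wells over that of vehicle wells, given as the median of duplicate plates.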

[2] = compound: CCC1=CN=CN=C1N2CCN(CC2)CC3=NC4=C(N3)C=C(C=C4)C(F)(F)F + NC(=O)Nc1cc(-c2cccc(F)c2)sc1C(=O)N[C@H]1CCCNC1 [AZD7762] (partner 0.2 µM)
Procedure, shortened: as §1

[3] = compound: CCC1=CN=CN=C1N2CCN(CC2)CC3=NC4=C(N3)C=C(C=C4)C(F)(F)F + CC1(C)CCC(c2ccc(Cl)cc2)=C(CN2CCN(c3ccc(C(=O)NS(=O)(=O)c4ccc(N[C@H](CCN5CCOCC5)CSc5ccccc5)c(S(=O)(=O)C(F)(F)F)c4)cc3)CC2)C1 [Navitoclax] (partner 0.5 µM)
Procedure, shortened: as §1

[4] = compound: CCn1c(-c2nonc2N)nc2cnc(Oc3cccc(NC(=O)c4ccc(OCCN5CCOCC5)cc4)c3)cc21 + CC(=O)c1c(C)c2cnc(Nc3ccc(N4CCNCC4)cn3)nc2n(C2CCCC2)c1=O [Palbociclib] (partner 0.5 µM)
Procedure, shortened: as §1

Cell Line | relative viability ([1]; first compound 0.25 µM) | relative viability ([1]; first compound 0.7906 µM) | relative viability ([1]; first compound 2.5 µM) | relative viability ([1]; first compound 7.906 µM) | relative viability ([1]; first compound 25 µM) | relative viability ([2]; first compound 0.04 µM) | relative viability ([2]; first compound 0.1265 µM) | relative viability ([2]; first compound 0.4 µM) | relative viability ([2]; first compound 1.265 µM) | relative viability ([2]; first compound 4 µM) | relative viability ([3]; first compound 0.04 µM) | relative viability ([3]; first compound 0.1265 µM) | relative viability ([3]; first compound 0.4 µM) | relative viability ([3]; first compound 1.265 µM) | relative viability ([3]; first compound 4 µM) | relative viability ([4]; first compound 0.04 µM) | relative viability ([4]; first compound 0.1265 µM) | relative viability ([4]; first compound 0.4 µM) | relative viability ([4]; first compound 1.265 µM) | relative viability ([4]; first compound 4 µM)
HCC-44 | 1 | 1.1 | 0.91 | 0.975 | 1.15 | 1.04 | 0.946 | 0.977 | 1.13 | 0.986 | 1.01 | 1.06 | 0.895 | 0.823 | 0.919 | 1.01 | 1.01 | 1.02 | 1.08 | 0.878
LOU-NH91 | 0.548 | 0.569 | 0.529 | 0.519 | 0.555 | 0.758 | 0.743 | 0.72 | 0.634 | 0.831 | 0.626 | 0.692 | 0.708 | 0.583 | 0.752 | 0.508 | 0.476 | 0.502 | 0.422 | 0.421
NCI-H460 | 0.18 | 0.148 | 0.157 | 0.157 | 0.123 | 0.622 | 0.528 | 0.619 | 0.578 | 0.6 | 1.25 | 1.01 | 1.01 | 1.09 | 1.11 | 0.213 | 0.126 | 0.101 | 0.056 | 0.073
NCI-H1915 | 0.502 | 0.48 | 0.503 | 0.504 | 0.438 | 0.684 | 0.688 | 0.694 | 0.597 | 0.734 | 0.819 | 0.735 | 0.847 | 0.722 | 0.809 | 0.522 | 0.524 | 0.516 | 0.386 | 0.376
NCI-H1734 | 0.349 | 0.364 | 0.356 | 0.32 | 0.344 | 0.619 | 0.626 | 0.562 | 0.564 | 0.782 | 0.852 | 0.839 | 0.856 |  | 0.907 | 0.335 | 0.365 | 0.293 | 0.319 | 0.267
NCI-H1993 | 0.614 | 0.281 | 0.586 | 0.524 | 0.543 | 0.747 | 0.822 | 0.726 | 0.783 | 0.678 | 1.16 | 0.934 | 0.792 | 0.817 | 0.778 | 0.479 | 0.659 | 0.642 | 0.695 | 0.626
LK-2 | 0.538 |  | 0.774 | 0.463 | 0.188 | 0.414 | 0.476 | 0.353 | 0.209 | 0.466 | 0.773 | 0.801 | 0.714 | 0.688 | 0.761 | 0.627 | 0.787 | 0.541 | 0.568 | 0.673
HCC-78 | 0.536 | 0.41 | 0.453 | 0.505 | 0.381 | 0.564 | 0.559 | 0.668 | 0.525 | 0.631 | 0.654 | 0.832 | 0.831 | 0.476 | 0.525 | 0.446 | 0.445 | 0.525 | 0.533 | 0.452
NCI-H3122 | 0.192 | 0.197 | 0.199 | 0.166 | 0.165 | 0.971 | 0.947 | 0.957 | 1.04 | 0.977 | 1.02 | 0.996 | 0.997 | 0.987 | 1.03 | 0.209 | 0.182 | 0.184 | 0.19 | 0.19
HOP-62 | 0.465 | 0.536 | 0.46 | 0.381 | 0.458 | 0.491 | 0.439 | 0.602 | 0.558 | 0.746 | 1.06 | 1.07 | 1.04 | 0.898 | 0.927 | 0.45 | 0.371 | 0.424 | 0.279 | 0.365
BEN | 0.485 | 0.468 | 0.423 | 0.424 | 0.426 | 0.573 | 0.57 | 0.614 | 0.611 | 0.578 | 0.0475 | 0.075 | 0.0493 | 0.0611 | 0.0644 | 0.473 | 0.469 | 0.472 | 0.77 | 0.441
ChaGo-K-1 | 0.915 | 0.961 | 0.973 | 0.919 | 0.68 | 0.835 | 0.836 | 0.881 | 0.816 | 0.961 |  | 1 | 0.927 | 0.936 | 0.942 | 1.08 | 0.896 | 0.846 | 0.907 | 0.928
NCI-H1755 | 0.469 | 0.449 | 0.403 | 0.478 | 0.532 | 0.579 | 0.528 | 0.434 | 0.395 | 0.602 | 1.01 | 0.947 | 0.955 | 0.606 | 0.889 | 0.457 | 0.46 | 0.397 | 0.454 | 0.424
